# Results: a melting point compilation (Tetko et al.; mined from patent text by program, amines drawn as free bases though some values may be those of a salt)
row,SMILES,melting point [°C]
1,O=C(CC1CC(O)CO1)NC1CCC(CCN2CCN(c3nccc4c3CCO4)CC2)CC1 (stereo not given),155
2,CC(C)c1ccc(C(=O)Nc2cn3cc(-n4ccnc4)ccc3n2)cc1,291 to 293
3,COC(=O)/C=C/c1ccc(C=O)s1,61 to 62.5
4,Cc1nc2cc(CCCN3C(=O)c4ccccc4C3=O)ccc2s1,126
5,Nc1scc2c1c(=O)oc1ccc3ccccc3c12,221 to 222
6,Cn1nc(N)c2c(=O)n(-c3ccccc3)c3ncccc3c21,> 300
7,O=C(O)Cc1nn(Cc2ccc(Br)cc2F)c2ccccc12,167 to 168
8,O=C(O)CN1C(=O)C(=Cc2ccc(OCc3ccc(F)cc3F)c(OCc3ccc(F)cc3F)c2)SC1=S,251 to 254
9,CCOC(=O)C(CC(=S)c1ccc(-c2ccccc2)cc1)SC(C)=O (stereo not given),71.5 to 72.5
10,CCn1ncc2c(NCC3CCCCC3)c3ccccc3nc21,161 to 163
11,N#Cc1ncc(F)cc1O,201
12,Fc1cccc(Cn2cnnc2S)c1,124 to 125
13,COc1ccccc1[C@@]1(O)[C@H](O)CC(c2ccccc2)(c2ccccc2)[C@@H]2CN(C(=O)Cc3ccc4ccccc4c3)C[C@@H]21 (racemic),188 to 190
14,Nc1cc(N)c(OCC(F)(F)F)cc1OCC(F)(F)F,109
15,Nc1nc(N)c2ncn(COCCO)c2n1,183 to 184
16,CC(C)(C)c1nc(C(=O)c2cc[nH]n2)nc(C(C)(C)C)c1O,156 to 161
17,OCc1ncn2cc(Br)sc12,104 to 105
18,Cc1cc(=O)c2ccc(OCCCN3CCC(NC(=O)c4ccccc4)CC3)cc2o1,173 to 175
19,O=C(O)CCC(=NOCc1ccc(OCc2cn3c(Cl)cccc3n2)cc1)c1ccccc1,160 to 161
20,O=C(O)Cc1cc2c(c(C(=O)O)c1)NC(C(F)(F)F)CC2 (stereo not given),195 to 196

row,SMILES,melting point [°C]
1,Cc1ccc(CC(=O)O)s1,54
2,O=P(O)(O)C(O)(Cc1nn(-c2ccc(F)cc2)cc1-c1ccc(Cl)cc1)P(=O)(O)O,201 to 203
3,O=c1c2c(Cc3ccccc3C(F)(F)F)n[nH]c2c2cccnc2n1-c1cccc(C(F)(F)F)c1,260 to 264
4,COc1cc2ncnc(Nc3cccc(Cl)c3F)c2cc1O,265 to 268
5,COc1ccc(Nc2nnc(Cc3ccncc3)c3ccccc23)cc1Cl,195 to 197
6,Cc1c2c(cc3c(=O)c4c(F)cccc4oc13)CC(C(=O)O)O2 (stereo not given),292 to 295
7,COc1ccc(O)c(C(C)(O)c2ccccc2)c1 (stereo not given),114
8,CC1CCCCN1CCC(=O)Nc1ccc2c(=O)c3ccc(NC(=O)CCN4CCCCC4C)cc3[nH]c2c1 (stereo not given),> 320
9,CCCSc1ncc(CO)n1Cc1ccc(-c2ccccc2C(=O)O)cc1,194 to 195
10,CON=Cc1c(S(N)(=O)=O)ccn1C,120 to 122
11,CC(C)(C)OC(=O)N1CCC(c2ccc(Nc3nc4c(-c5cnn(-c6ccc(F)cc6)c5)cccn4n3)cc2)CC1,176 to 178
12,COCCOc1cccc2c(Nc3ccccc3C)c(C(=O)C(C)C)cnc12,68 to 70
13,C=COCCOc1ccc(C=CC(=O)C=Cc2ccc(OCCOC=C)cc2)cc1,124 to 125
14,O=C1CCCCC1C(C[N+](=O)[O-])c1ccc(Cl)cc1 (racemic),96 to 97
15,CCCc1nn(-c2ccc(C(F)(F)F)cn2)cc1CCCOc1cc(CCC(=O)O)ccc1OC,147 to 148
16,N#Cc1cc(F)cc(-c2cc(N)c3c(c2)C2(CCCCC2)C(=O)N3)c1,241 to 243
17,CSc1cc(SC)c(SC)cc1NC(C)=O,87 to 89
18,O=C1Nc2ccccc2N(C(=O)N2CCCC(CCCN3CCCCC3)C2)c2ncccc21 (stereo not given),166 to 167
19,Cc1cc(=S)c2c(O)cc(O)cc2o1,244 to 246
20,CC(=O)Nc1nc(C)c(S(=O)(=O)N2CCC(O)C2)s1 (racemic),241
